System: rat model of persistent inflammatory pain
Test: Persistent inflammatory pain model (intraplantar FCA): paw withdrawal to mechanical pressure and cold (10° C.), general observations
Format: in vivo
Conditions: for rats with noticeable flaccidity: 1-6h post-dose; for behavioural changes in the rats (general observations): rat, in vivo; for rats more alert and more vocal than fellow cage-mates: 1-6 h post-dose
Protocol: The efficacy of Compounds 1, 2, 3 and 4 was investigated using rat models of neuropathic and/or persistent inflammatory pain.
Subjects comprised male, Wistar Hanover rats, 6 animals per group (225±2 g for Compound 1 studies and Compound 2 studies; 214±1 g for Compound 3 studies; 236±1 g for Compound 4 studies).
Vehicle (12% Captisol®; 0.5% w/v HPMC and 0.1% w/v Tween-80; 5 ml/kg via the intraperitoneal route) was prepared using autoclaved deionized water not more than one week prior to use.
The details of the studies performed are outlined in Table 1.
The control for the neuropathic pain model was lamotrigine, administered at 30 mg/kg via oral delivery. The control for the inflammatory pain model was diclofenac, administered at 30 mg/kg via oral delivery. Statistical analysis was performed using one-way ANOVA, and comparisons were performed with time-matched vehicle group using Tukey's HSD test wherein * p<0.05, ** p<0.01, *** p<0.001.
Treatment groups were randomised and blinded. Groups of 6 rats were used.
Mechanical hyperalgesia was examined in a model of persistent inflammatory pain. The hyperalgesia was induced by an intraplantar injection (25 μl) of Freund's Complete Adjuvant (FCA) into the left hind paw.
To assess the effect of the test compound, paw withdrawal thresholds or latencies were measured on both the ipsilateral (FCA-injected) and contralateral (non-injected) paws, prior to (naïve) and 24 hours following FCA injection (predose), and then at 1, 3, 6 and 24 hours after drug or vehicle administration.
Mechanical hyperalgesia was examined in a model of neuropathic pain by measuring paw withdrawal thresholds (PWT) to increasing mechanical force applied to the dorsal surface of the rat paw using an Analgesymeter (Ugo-Basile, Milan) equipped with a wedge-shaped probe (area 1.75 mm^2). Cut-off was set at 250 g and the end-point was taken as withdrawal of the hind paw. Both ipsilateral and contralateral paw withdrawal readings were taken.
Cold sensitivity was assessed using a commercially available cold-plate (Ugo Basile, Milan). The cold plate was allowed to stabilize for 5 minutes at the set temperature prior to testing. Paw withdrawal latencies (PWL) were determined with the cold-plate set at 10° C. The animals were lightly restrained and each hind paw in turn placed onto the surface of the cold-plate. The end point was taken as the withdrawal of the paw and recorded as the withdrawal latency for the ipsilateral and the contralateral paw. A maximum cut-off of 30 seconds was used for each paw.
In addition to behavioural pain readings, each rat was observed throughout the study for changes in general behaviour.
Data were expressed as withdrawal threshold (g) or withdrawal latencies (s) and percentage reversals calculated according to the following formula: […]
Statistical analysis was carried out on withdrawal threshold readings using ANOVA with repeated measures followed by Tukey's HSD test. The level for statistical significance was set as p<0.05.

[1] = 10 mg/kg i.p., 3 hours post-dose
[2] = 30 mg/kg i.p., 3 hours post-dose
[3] = 60 mg/kg i.p., 1 hour post-dose
[4] = 60 mg/kg i.p., 3 hours post-dose
[5] = 30 mg/kg i.p., time not stated (peak reversal at 1-3 h post-dose)

Structure (SMILES) | reversal of mechanical sensitivity [1] [%] | reversal of cold sensitivity [2] [%] | reversal of cold sensitivity [3] [%] | reversal of cold sensitivity [4] [%] | reversal of mechanical sensitivity [4] [%] | changes in contralateral paw withdrawals/latencies (all doses) | behavioural changes in the rats (general observations) | activity at 6 hours post-dose | also measured
Cc1ccc(Oc2ncc(N3C(=O)NC(C)(C)C3=O)cn2)c2c1OCC21CC1 [Compound 1, 5,5-dimethyl-3-[2-(7-methylspiro[2H-benzofuran-3,1′-cyclopropane]-4-yl)oxypyrimidin-5-yl]imidazolidine-2,4-dione] | 64 | 65 | 92 | – | – | – | – | – | reversal of cold sensitivity [1]: 45%; rats with noticeable flaccidity (30 mg/kg i.p.): 2/6; reversal of mechanical sensitivity (30 mg/kg i.p., 1 hour post-dose): 74%; animals showing the contralateral paw effect (60 mg/kg i.p.): 3/6; changes in contralateral paw withdrawals/latencies (60 mg/kg i.p.): Pronounced increases; rats with noticeable flaccidity (60 mg/kg i.p.): 4/6; reversal of mechanical sensitivity [3]: 92%; reversal of cold sensitivity (60 mg/kg i.p., 6h post-dose): 45%; reversal of mechanical sensitivity (60 mg/kg i.p., 6h post-dose): 45%
CC[C@@]1(C)NC(=O)N(c2cnc(Oc3ccc(C)c(OC(F)(F)F)c3)nc2)C1=O [Compound 2, (5R)-5-ethyl-5-methyl-3-[2-({4-methyl-3-[(trifluoromethyl)oxy]phenyl}oxy)-5-pyrimidinyl]-2,4-imidazolidinedione] | 46 | 58 | 96 | 81 | 67 | No changes | no apparent behavioural changes | – | –
Cc1ccc(Oc2ccc(-n3c(C)n[nH]c3=O)cn2)c2c1OCC21CC1 [Compound 3, 5-methyl-4-{6-[(7-methylspiro[1-benzofuran-3,1′-cyclopropan]-4-yl)oxy]pyridin-3-yl}-2,4-dihydro-3H-1,2,4-triazol-3-one] | – | – | – | 51 | 67 | no significant changes | – | activity still evident | rats more alert and more vocal than fellow cage-mates (30 mg/kg group): 4/6; rats more alert and more vocal than fellow cage-mates (60 mg/kg group): 1/6; doses producing a reversal of mechanical or cold sensitivity (10, 30 and 60 mg/kg i.p. tested): Only the top dose; reversal at 1 hour post-dose (1 hour post-dose): little reversal evident
CC[C@H]1NC(=O)N(c2ccc(Oc3ccc(C)c4c3C3(CC3)CO4)nc2)C1=O [Compound 4, (5R)-5-ethyl-3-[6-(7-methylspiro[2H-benzofuran-3,1′-cyclopropane]-4-yl)oxy-3-pyridyl]imidazolidine-2,4-dione] | – | – | – | – | – | no significant changes | no behavioural changes noted | significant activity still evident | reversal of cold sensitivity [5]: 55%; reversal of mechanical sensitivity [5]: 50%
